PMC6522912, “Evaluation of the published kinase inhibitor set to identify multiple inhibitors of bacterial ATP-dependent mur ligases” (Journal of Enzyme Inhibition and Medicinal Chemistry, 2019)

What was measured:
[1] = molecular target: E. coli MurC (Escherichia coli, UniProt P17952); test: Malachite green inhibition assay, MurC; format: biochemical; details: for remaining activity at 100 µM: 0.25 h, read-out: RA [%] at 100 µM MurC; for remaining activity at 100 µM / RA [%] at 100 µM MurC: Table S1, PKIS screening; for RA (%) MurC: Table S3, aza stilbene compounds
E. coli MurC, sequence (P17952 whole entry): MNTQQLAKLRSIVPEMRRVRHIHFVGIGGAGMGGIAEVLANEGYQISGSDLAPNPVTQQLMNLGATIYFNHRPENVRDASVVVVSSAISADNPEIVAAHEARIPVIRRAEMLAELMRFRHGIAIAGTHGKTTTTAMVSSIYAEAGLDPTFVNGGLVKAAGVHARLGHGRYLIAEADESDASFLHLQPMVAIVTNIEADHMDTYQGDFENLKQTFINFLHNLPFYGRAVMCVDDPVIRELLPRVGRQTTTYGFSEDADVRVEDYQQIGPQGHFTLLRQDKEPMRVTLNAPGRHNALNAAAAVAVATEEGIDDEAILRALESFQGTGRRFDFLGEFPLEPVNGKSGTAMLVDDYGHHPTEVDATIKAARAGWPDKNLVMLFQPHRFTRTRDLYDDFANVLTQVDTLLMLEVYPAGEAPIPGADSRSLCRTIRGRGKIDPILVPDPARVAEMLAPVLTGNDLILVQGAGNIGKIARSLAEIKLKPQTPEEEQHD
Protocol: (§1) Inhibition of the Mur ligases was determined using the malachite green assay, with slight modifications.
(§2) In all cases, the final concentration of DMSO was 5% (v/v). After incubation for 15 min at 37 °C, the enzyme reaction was terminated by addition of 100 µM Biomol green reagent, and the absorbance was measured at 650 nm after 5 min. All of the experiments were run in duplicate. Residual activities were calculated with respect to control assays without the tested compounds, but with the 5% DMSO carrier.
(§3) The published kinase inhibitor set compounds were evaluated for inhibition of MurC, D and F ligases from E. coli using the Malachite green assay, which detects orthophosphate generated during enzymatic reactions. To avoid non-specific inhibition due to aggregate formation, all of the compounds were tested in the presence of detergent (0.005% Triton-X114). The data are presented as the residual activities of these Mur ligases in the presence of 100 µM of each test compound (Supporting Information Table S1). […] Additionally, regarding the data of profiled compounds in large panels of human kinase assays[41]

[2] = molecular target: E. coli MurF (Escherichia coli, UniProt P11880); test: biochemical; details: for remaining activity at 100 µM: 0.25 h, read-out: RA [%] at 100 µM MurF; for remaining activity at 100 µM / RA [%] at 100 µM MurF: Table S1, PKIS screening; for RA (%) MurF: Table S3, aza stilbene compounds
E. coli MurF, sequence (P11880 whole entry): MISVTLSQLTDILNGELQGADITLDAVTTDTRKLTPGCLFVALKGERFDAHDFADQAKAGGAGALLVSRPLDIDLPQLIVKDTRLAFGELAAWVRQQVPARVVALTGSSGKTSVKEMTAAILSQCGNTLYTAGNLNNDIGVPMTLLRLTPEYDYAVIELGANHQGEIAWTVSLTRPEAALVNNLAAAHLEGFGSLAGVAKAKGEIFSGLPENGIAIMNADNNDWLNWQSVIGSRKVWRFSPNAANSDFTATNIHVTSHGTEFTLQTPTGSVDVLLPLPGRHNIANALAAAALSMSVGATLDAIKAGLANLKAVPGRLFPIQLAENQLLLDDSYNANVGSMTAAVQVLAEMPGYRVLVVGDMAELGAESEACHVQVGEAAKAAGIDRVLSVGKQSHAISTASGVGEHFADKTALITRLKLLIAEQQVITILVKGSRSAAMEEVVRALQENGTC
Protocol: as §1, §2, §3

[3] = molecular target: E. coli MurD (Escherichia coli, UniProt P14900); test: biochemical; details: for remaining activity at 100 µM: 0.25 h, Table S1, PKIS screening, read-out: RA [%] at 100 µM MurD
E. coli MurD, sequence (P14900 whole entry): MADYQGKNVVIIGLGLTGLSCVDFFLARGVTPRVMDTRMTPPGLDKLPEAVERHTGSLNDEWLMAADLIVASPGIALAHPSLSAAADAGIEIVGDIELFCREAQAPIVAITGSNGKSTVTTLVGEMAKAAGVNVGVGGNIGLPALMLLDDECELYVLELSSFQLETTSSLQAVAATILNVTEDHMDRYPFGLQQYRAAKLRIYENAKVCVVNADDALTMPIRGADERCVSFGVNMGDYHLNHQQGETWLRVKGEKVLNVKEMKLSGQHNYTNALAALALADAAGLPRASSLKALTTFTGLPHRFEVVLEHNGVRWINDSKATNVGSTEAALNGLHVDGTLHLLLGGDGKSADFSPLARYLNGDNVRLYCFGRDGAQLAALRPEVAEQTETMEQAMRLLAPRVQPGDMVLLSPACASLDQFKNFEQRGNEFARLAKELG
Protocol: as §1, §2
The published kinase inhibitor set compounds were evaluated for inhibition of MurC, D and F ligases from E. coli using the Malachite green assay, which detects orthophosphate generated during enzymatic reactions. To avoid non-specific inhibition due to aggregate formation, all of the compounds were tested in the presence of detergent (0.005% Triton-X114). The data are presented as the residual activities of these Mur ligases in the presence of 100 µM of each test compound (Supporting Information Table S1).

Row | Compound | remaining activity at 100 µM [1] [%] | remaining activity at 100 µM [2] [%] | remaining activity at 100 µM [3] [%] | other results
1 | COc1cccc(-n2ncc3c(N/N=C/c4ccc(F)cc4)ncnc32)c1 [GW817396X] | 69 | 41 | 95 | –
2 | NC(=O)c1cc(-c2ccc(F)cc2)cc(-c2ccncc2)c1N [GSK620503A] | 94 | 80 | 71 | –
3 | O=C1Nc2ccc(C(=O)c3ccco3)cc2C1=Cc1cc(Cl)c(O)c(Cl)c1 [GW406108X] | 74 | 79 | 85 | –
4 | NC(=O)c1ccc(Oc2nccc(-c3c(-c4ccc(F)cc4)ncn3C3CCNCC3)n2)cc1 [SB-242718] | 39 | 69 | 65 | –
5 | O=C(Nc1n[nH]c2nc(-c3ccco3)ccc12)C1CC1 [SB-743899] | 84 | 91 | 89 | –
6 | Nc1nccc(-c2c(-c3ccc(F)cc3)nn3cc(C(F)(F)F)ccc23)n1 [GW568326X] | 68 | 78 | 90 | –
7 | CCn1c(-c2nonc2N)nc2ccccc21 [GW549034X] | – | – | 100 | RA [%] at 100 µM MurC [1]: 70%; RA [%] at 100 µM MurF [2]: 93%
8 | CS(=O)(=O)CCNCc1ccc(-c2ccc3ncnc(Nc4ccc(OCc5ccccc5)cc4)c3c2)o1 [GW458787A] | 68 | 66 | 58 | –
9 | O=C1Nc2ccccc2/C1=C/Nc1ccc(-n2cncn2)cc1 [GW301789X] | 64 | 75 | 91 | –
10 | COC(=O)c1cncc(C=Cc2c(C)cc(O)cc2C)c1 [Compound 15] | – | – | – | RA (%) MurC [1]: 98%; RA (%) MurF [2]: 81%; RA (%) MurD [3]: 69%
11 | c1ccc(-c2n[nH]cc2-c2ccnc(-c3ccc(OCCN4CCOCC4)cc3)c2)nc1 [GW695874X] | 79 | 91 | 80 | –
12 | Cc1cc(O)cc(C)c1C=Cc1cncc(C(N)=O)c1 [Compound 14] | – | – | – | RA (%) MurC [1]: 89%; RA (%) MurF [2]: 75%; RA (%) MurD [3]: 89%
13 | Cc1cccc(Nc2ncc(-c3ccccc3)o2)c1 [GW632046X] | 100 | 97 | 84 | –
14 | CCn1c(-c2nonc2N)nc2cnc(Oc3cccc(NC(=O)c4ccc(OCCN5CCOCC5)cc4)c3)cc21 [GSK269962B] | 57 | 66 | 58 | –
15 | CNC(=O)c1cc(-c2ccc(F)cc2)cc(-c2ccc(S(=O)(=O)N3CCCC3)cc2)c1N [GSK635416A] | 71 | 88 | 43 | –
16 | Cc1ccc(C(=O)NC2CC2)cc1-c1ccc2[nH]ncc2c1 [GW820759X] | 63 | 86 | 100 | –
17 | COc1cc2c(cc1Nc1nc(Nc3cccc(F)c3C(N)=O)c3cc[nH]c3n1)N(C(=O)CN1CCN(C(C)C)CC1)CC2 [GSK1751853A] | 55 | 89 | 74 | –
18 | CCS(=O)(=O)c1ccc(OC)c(Nc2ncc(-c3cccc(-c4ccccc4F)c3)o2)c1 [GW678313X] | 87 | 82 | 64 | –
19 | Nc1nc(-c2ccc(F)cc2)c(-c2ccc3ncccc3n2)s1 [GW785804X] | 100 | 78 | 82 | –
20 | COC(=O)c1sc(-n2cnc3cc(OC)c(OC)cc32)cc1OCc1ccccc1C(F)(F)F [GSK1030058A] | 32 | 55 | 78 | –
21 | COc1ccc2cc(-c3c(-c4ccncc4)nc(-c4ccc([S+](C)[O-])cc4)n3C)ccc2c1 (stereo not shown) [SB-437013] | 70 | 70 | 58 | –

Row | Compound | remaining activity at 100 µM [1] [%] | remaining activity at 100 µM [2] [%] | remaining activity at 100 µM [3] [%] | other results
22 | c1ccc(Cc2nc3ccc(Nc4ncnc5ccccc45)cc3[nH]2)cc1 [GR269666A] | 77 | 96 | 83 | –
23 | COC(=O)Nc1nc2ccc(Sc3ccc(NC(=O)Nc4cc(C(F)(F)F)ccc4F)cc3)cc2[nH]1 [GW607049C] | 62 | 91 | 80 | –
24 | CC(C)c1ccc(Nc2nccc(-c3cnn4ncccc34)n2)cc1 [GW805758X] | 64 | 68 | 57 | –
25 | O=C(NCC1CC1)c1ccc(-c2cccc(C(=O)NC3CC3)c2)cc1 [GW806776X] | 84 | 78 | 95 | –
26 | CCOc1nccc2c1nc(-c1nonc1N)n2CC [SB-737198] | 73 | 100 | 100 | –
27 | CN(c1ccc(NC(=O)Nc2c(Cl)cccc2Cl)cc1)c1ccnc(Nc2cccc(CS(C)(=O)=O)c2)n1 [GW809897X] | 26 | 51 | 55 | –
28 | O=C(Nc1n[nH]c2cc(-c3ccccc3)ccc12)C1CC1 [SB-732941] | 80 | 86 | 79 | –
29 | OCc1ccc(-c2nc(-c3ccccn3)c(-c3ccc4c(c3)OCO4)[nH]2)cc1 [SB-431533] | 95 | 75 | – | –
30 | CC(=O)NCc1cccc(C#Cc2cncnc2Nc2ccc(OCc3cccc(F)c3)c(Cl)c2)c1 [GW807930X] | 66 | 69 | – | –
31 | c1ccc(Oc2ccc(Nc3ncc(-c4ccccc4)o3)cc2)cc1 [GW641155A] | 66 | 86 | – | –
32 | COc1cccc(-n2ncc3c(N/N=C/c4ccncc4)ncnc32)c1 [GW784752X] | 76 | 93 | – | –
33 | COc1cc(Nc2ncc3c(C)nc(-c4cccc(C(F)(F)F)c4)n3n2)cc(OC)c1OC [GW837331X] | 65 | 89 | – | –
34 | COc1cccc(-c2c[nH]c3c(N/N=C/c4ccncc4)ncnc23)c1 [GW814408X] | 98 | 87 | – | –
35 | COc1cc2ncn(-c3cc(O[C@@H](C)c4ccccc4Cl)c(C(N)=O)s3)c2cc1OC [GSK237700A] | – | 75 | – | –
36 | Cn1c(-c2nonc2N)nc2cnccc21 [SB-736290] | 71 | 90 | – | –
37 | NC(=O)c1cccc(Nc2nccc(Nc3cccc(F)c3)n2)c1 [GW759710A] | 100 | 100 | – | –
38 | Cc1cc(O)cc(Nc2ccnc3cc(-c4ccccn4)ccc23)c1 [GSK3206866A] | – | – | – | RA [%] at 100 µM MurC [1]: 76%; RA [%] at 100 µM MurF [2]: 29%
39 | Cc1cccc2c1NC(=O)C2=NNc1ccc(S(N)(=O)=O)cc1 [GW282536X] | 93 | 27 | – | –
40 | CCn1c(-c2nonc2N)nc2ccccc21 [SB-693162] | 78 | 100 | – | –
41 | Clc1ccc(CNc2nccc(-c3cnn4ncccc34)n2)cc1 [GW781673X] | 79 | 63 | – | –
